According to patent US8686044B2, “Amide derivative, pest control agent containing the amide derivative, and use of the amide derivative” (Mitsui Chemicals Agro, Inc., priority 2008, dated 2014):

Key:
Assay type in all cases: in vivo
Spodoptera litura = experiment: Pesticidal test against Spodoptera litura (cabbage leaf dip); details: foliar, 144 h, concentration 1 ppm, 2-stage larvae, examined after 6 days, 25° C., read-out: pesticidal rate
In short: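 Cabbage leaf pieces dipped 30 seconds in compound solution at a predetermined concentration and air-dried, then offered to second-stage larvae, five per group in two replicates. Held at 25° C. Living and dead larvae counted after 6 days.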

Plutella xylostella = experiment: Pesticidal test against Plutella xylostella (cabbage leaf dip); details: foliar, 144 h, concentration 1 ppm, 2-stage larvae, examined after 6 days, 25° C., read-out: pesticidal rate
In short: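 Second-stage larvae (5 per group, two replicates) were released onto air-dried cabbage leaf discs that had been immersed for 30 seconds in compound solution at a set concentration. Mortality was scored after 6 days at 25° C.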

Choristoneura magnanima = experiment: Pesticidal test against Choristoneura magnanima (artificial feed dip); details: 144 h, concentration 1 ppm, 2-stage larvae, examined after 6 days, 25° C., read-out: pesticidal rate
In short: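 Second-stage larvae, five per group in duplicate, fed artificial diet that had been immersed 30 s in test solution at a predetermined concentration and air-dried. Mortality scored at day 6, 25° C.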

Helicoverpa armigera = experiment: Pesticidal test against Helicoverpa armigera (cabbage leaf disk dip); details: foliar, 72 h, concentration 1 ppm, 2-stage larvae, examined after 3 days, 25° C., read-out: pesticidal rate
In short: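 Cabbage leaf disks were dipped for 30 s in test solution at a set concentration and air-dried. Second-instar larvae were placed one per hole and held at 25 °C, with live and dead counts taken after 3 days. Five larvae per group were tested in two replicates.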

Laodelphax striatellus = experiment: Pesticidal test against Laodelphax striatellus (rice seedling spray); details: 144 h, concentration 100 ppm, 3-stage larvae, examined after 6 days, 25° C., read-out: pesticidal rate
In short: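 Rice seedlings sprayed with 2.5 ml acetone solution of compound at a predetermined concentration, air-dried, then infested with third-stage Laodelphax striatellus larvae in capped water-containing tubes at 25 °C. Living and dead insects counted after 6 days; ten larvae per group, two replicates.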

Blattella germanica = experiment: Pesticidal test against Blattella germanica (petri dish dry film); details: 24 h, concentration 100 ppm, female adults, examined after 1 day, 25° C., read-out: pesticidal rate
In short: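 Acetone solution of test compound at a predetermined concentration dried as a film in a 9 cm petri dish; female adult cockroaches released onto it and kept at 25° C. Living and dead counted after 1 day; five insects per group, two replicates.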

Coptotermes formosanus = experiment: Pesticidal test against Coptotermes formosanus (treated filter paper); details: 120 h, concentration 30 ppm, examined after 5 days of treatment, 28° C., read-out: pesticidal rate
Protocol: Pesticidal Test against Coptotermes formosanus
20 μl of an acetone solution in which a test compound had been prepared at a predetermined concentration was added dropwise to the filter paper having a diameter of […] included in a polypropylene cup, and air-dried, and then 20 μl of water was added thereto. Coptotermes formosanus was released and the cup was capped. They were left to stand in a thermostatic chamber at 28° C., and the numbers of the living pests and the dead pests were examined after 5 days of treatment. The test was carried out with ten larvae per group in two replicates.

Ctenocephalides Felis [1] = experiment: Insecticidal test for Ctenocephalides felis, Test Example 1 (dry film in glass tube, 0.5 ml, Table A4); details: adults; for pest or weed control at 0.1 µg/mL: Ctenocephalides felis, concentration 0.1 μg/ml, after 24 hours of the exposure, in triplicate, read-out: death rate
Protocol: Insecticidal Test for Ctenocephalides Felis
0.5 ml of a solution of acetone, the active ingredient, prepared to the prescribed concentration was added dropwise to a glass tube with a flat bottom (internal diameter: 2.6 cm, bottom area: 5.3 cm^2, height: 12 cm), and the solvent was evaporated at room temperature to form a dry film of the agent on the bottom surface. About 10 adults of Ctenocephalides Felis per glass tube were added, and the adults were contact-exposed to the test compound. After 24 hours of the exposure, the conditions of the adults were examined and classified into “alive” and “dead (including a moribund condition)” to determine the death rate (in triplicate).
As the comparative compounds, the following Compounds (A), (B), and (C) disclosed in WO2009/080203, and fipronil were used.

Ctenocephalides Felis [2] = experiment: Insecticidal test for Ctenocephalides felis, Test Example 3 (dry film in glass tube, 0.96 ml, Table A5); details: adults of Ctenocephalides felis, after 24 hours of exposure, in triplicate
Protocol: Insecticidal Test for Ctenocephalides felis
0.96 ml of a solution of acetone, the active ingredient, prepared to the prescribed concentration was added dropwise to a glass tube with a flat bottom (internal diameter: 3.6 cm, height: 12 cm), and the solvent was evaporated at room temperature to form a dry film of the agent on the bottom surface. About 10 adults of Ctenocephalides felis per glass tube were added, and they were contact-exposed to the test compound. After 24 hours of the exposure, the conditions of the adults were examined and classified into “alive” and “dead (including a moribund condition)” to determine the death rate was determined (in triplicate).
As the comparative compounds, the following Compounds (D) and (E) disclosed in WO2009/080203, and fipronil were used.

Row | Structure (SMILES) | pest or weed control at 1 ppm (Spodoptera litura) [%] | pest or weed control at 1 ppm (Plutella xylostella) [%] | pest or weed control at 1 ppm (Choristoneura magnanima) [%] | pest or weed control at 1 ppm (Helicoverpa armigera) [%] | pest or weed control at 100 ppm (Laodelphax striatellus) [%] | pest or weed control at 100 ppm (Blattella germanica) [%] | pest or weed control at 30 ppm (Coptotermes formosanus) [%] | pest or weed control at 0.1 µg/mL (Ctenocephalides Felis [1]) [%] | speed of effect as compared with the fipronil (Ctenocephalides Felis [1]; compared with fipronil) | death rate (Ctenocephalides Felis [2]; 0.03 μg/ml) [%] | death rate (Ctenocephalides Felis [2]; 0.1 μg/ml) [%]
1 | CN(C(=O)c1ccccc1)c1cccc(C(=O)Nc2c(Br)cc(C(F)(C(F)(F)F)C(F)(F)F)cc2C(F)(F)F)c1F [7-1574, N-(2-bromo-4-(perfluoropropan-2-yl)-6-(trifluoromethyl)phenyl)-2-fluoro-3-(N-methylbenzamide)benzamide] | ≥ 70 | ≥ 70 | ≥ 70 | ≥ 70 | ≥ 70 | ≥ 70 | ≥ 70 | 100 | immediate effect | 72.0 | 98.9
2 | CN(C(=O)c1ccc(F)cc1)c1cccc(C(=O)Nc2c(I)cc(C(F)(C(F)(F)F)C(F)(F)F)cc2C(F)(F)F)c1F [7-1733, 2-fluoro-3-(4-fluoro-N-methylbenzamide)-N-(2-iodo-4-(perfluoropropan-2-yl)-6-(trifluoromethyl)phenyl)benzamide] | ≥ 70 | ≥ 70 | ≥ 70 | ≥ 70 | ≥ 70 | ≥ 70 | ≥ 70 | 100 |  | 21.1 | 91.6
